System: 947758-054-R-J2-PDC spheroid growth, percent test/control
Assay: Anticancer human tumor 947758-054-R-J2-PDC patient-derived colon adenocarcinoma cell line growth inhibition [CLK]
Details: spheroids with HUVEC and MSC; for IC50: curve of first compound; for viability, T/C: stronger effect = lower value
Outline: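 Patient-derived tumor cells grown as complex spheroids with HUVEC endothelial cells and mesenchymal stem cells, treated with drug combinations. Concentrations descend in half-log steps from near clinical Cmax, or from 10 microM if Cmax unknown.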
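Further: spheroids exposed to compounds for one week before readout.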
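Wherever viability, T/C is given: 100% = DMSO vehicle control wells.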

CC(Nc1ccc2c(c1)OCCn1cc(N3C(=O)OCC3C(F)F)nc1-2)C(N)=O (configuration not stated) + CN1CCN(c2cc(C(=O)Nc3cc4cc(-c5cnn(C)c5)ccc4cn3)ccn2)CC1
IC50 (second compound 0.0316 µM): > 10000 nM
IC50 (second compound 0.1 µM): 297 nM
IC50 (second compound 0.316 µM): < 31.6 nM
IC50 (second compound 1 µM): < 31.6 nM
IC50 (second compound 3.16 µM): < 31.6 nM
IC50 (second compound 10 µM): < 31.6 nM
viability, T/C (second compound 0.0316 µM, first compound 0.0316 µM): 138%
viability, T/C (second compound 0.0316 µM, first compound 0.1 µM): 153%
viability, T/C (second compound 0.0316 µM, first compound 0.316 µM): 137%
viability, T/C (second compound 0.0316 µM, first compound 1 µM): 88.2%
viability, T/C (second compound 0.0316 µM, first compound 3.16 µM): 94.5%
viability, T/C (second compound 0.0316 µM, first compound 10 µM): 74.2%
viability, T/C (second compound 0.1 µM, first compound 0.0316 µM): 165%
viability, T/C (second compound 0.1 µM, first compound 0.1 µM): 127%
viability, T/C (second compound 0.1 µM, first compound 0.316 µM): 45.4%
viability, T/C (second compound 0.1 µM, first compound 1 µM): 39.6%
viability, T/C (second compound 0.1 µM, first compound 3.16 µM): 44.5%
viability, T/C (second compound 0.1 µM, first compound 10 µM): 29.6%
viability, T/C (second compound 0.316 µM, first compound 0.0316 µM): 5.46%
viability, T/C (second compound 0.316 µM, first compound 0.1 µM): 4.48%
viability, T/C (second compound 0.316 µM, first compound 0.316 µM): 4.7%
viability, T/C (second compound 0.316 µM, first compound 1 µM): 3.14%
viability, T/C (second compound 0.316 µM, first compound 3.16 µM): 3.86%
viability, T/C (second compound 0.316 µM, first compound 10 µM): 1.64%
viability, T/C (second compound 1 µM, first compound 0.0316 µM): 0.13%
viability, T/C (second compound 1 µM, first compound 0.1 µM): 0.18%
viability, T/C (second compound 1 µM, first compound 0.316 µM): 0.13%
viability, T/C (second compound 1 µM, first compound 1 µM): 0.11%
viability, T/C (second compound 1 µM, first compound 3.16 µM): 0.11%
viability, T/C (second compound 1 µM, first compound 10 µM): 0.2%
viability, T/C (second compound 3.16 µM, first compound 0.0316 µM): 0.24%
viability, T/C (second compound 3.16 µM, first compound 0.1 µM): 0.19%
viability, T/C (second compound 3.16 µM, first compound 0.316 µM): 0.25%
viability, T/C (second compound 3.16 µM, first compound 1 µM): 0.22%
viability, T/C (second compound 3.16 µM, first compound 3.16 µM): 0.31%
viability, T/C (second compound 3.16 µM, first compound 10 µM): 0.26%
viability, T/C (second compound 10 µM, first compound 0.0316 µM): 0.35%
viability, T/C (second compound 10 µM, first compound 0.1 µM): 0.5%
viability, T/C (second compound 10 µM, first compound 0.316 µM): 0.84%
viability, T/C (second compound 10 µM, first compound 1 µM): 0.31%
viability, T/C (second compound 10 µM, first compound 3.16 µM): 1.57%
viability, T/C (second compound 10 µM, first compound 10 µM): 0.63%

Source: PubChem BioAssay AID2060605 (Molecular Pharmacology Branch, DTP, NCI, 2025)
